These results are taken from the supplement of paper PMC9265050, “Inhibition of RNA Binding in SND1 Increases the Levels of miR-1-3p and Sensitizes Cancer Cells to Navitoclax” (Cancers, 2022).

The subject of this assay is SW480. The assay is described as follows: drug sensitivity score (DSS, integrated dose-response area); higher = more sensitive (stronger viability reduction); extreme values may be limits of the assay. In outline: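 SW480 cells stably carrying doxycycline-inducible control or SND1-targeting shRNA were treated with 0.1 µg/mL doxycycline for 7 days. Cells were then seeded at 1000 per well into 384-well plates containing 525 commercially available small-molecule inhibitors at five concentrations, and viability was measured with CellTiter-Glo after 72 h. The drug sensitivity score integrates the area under a fitted non-linear dose–response model.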

Setting [1] is: shRNA: SND1 shRNA1 (SND1 silenced).
[2] abbreviates: shRNA: SND1 shRNA2 (SND1 silenced).
Setting [3] is: shRNA: control shRNA (non-targeting).

Take `CC(O)(CS(=O)(=O)c1ccc(F)cc1)C(=O)Nc1ccc(C#N)c(C(F)(F)F)c1` (centres undefined) [Bicalutamide]: the drug sensitivity score runs as follows: under setting [1], 0.4 DSS; under setting [2], 0.3 DSS; under setting [3], 1.4 DSS.

Turning to `CCNC(=O)CCC/C=C\C[C@@H]1[C@@H](/C=C/[C@@H](O)CCc2ccccc2)[C@H](O)C[C@@H]1O` [Bimatoprost], the drug sensitivity score runs as follows: under setting [1], 0 DSS; under setting [2], 0 DSS; under setting [3], 0 DSS.

With `Cn1cnc2c(F)c(Nc3ccc(Br)cc3F)c(C(=O)NOCCO)cc21` [Binimetinib], the drug sensitivity score worked out at 11.9 DSS under setting [1], 6.6 DSS under setting [2] and 6.6 DSS under setting [3].

For the molecule `CC[C@H](NC(=O)[C@H](C)NC)C(=O)N1C[C@@H](O)C[C@H]1Cc1c(-c2[nH]c3cc(F)ccc3c2C[C@@H]2C[C@H](O)CN2C(=O)[C@H](CC)NC(=O)[C@H](C)NC)[nH]c2cc(F)ccc12` [Birinapant], the drug sensitivity score is, setting by setting: under setting [1], 0 DSS; under setting [2], 0 DSS; under setting [3], 0 DSS.

Take `Cc1c(N)nc([C@H](CC(N)=O)NC[C@H](N)C(N)=O)nc1C(=O)N[C@H](C(=O)N[C@H](C)[C@@H](O)[C@H](C)C(=O)N[C@H](C(=O)NCCc1nc(-c2nc(C(=O)NCCC[S+](C)C)cs2)cs1)[C@@H](C)O)[C@@H](OC1OC(CO)C(O)C(O)C1OC1OC(CO)C(O)C(OC(N)=O)C1O)c1cnc[nH]1` (some centres undefined) [Bleomycin]: the drug sensitivity score runs as follows: under setting [1], 4.8 DSS; under setting [2], 5.4 DSS; under setting [3], 4.2 DSS.

With `CC(C)C[C@H](NC(=O)[C@H](Cc1ccccc1)NC(=O)c1cnccn1)B(O)O` [Bortezomib], the drug sensitivity score stood at 28.8 DSS under setting [1], 28.1 DSS under setting [2] and 28.7 DSS under setting [3].

Turning to `COc1cc(Nc2c(C#N)cnc3cc(OCCCN4CCN(C)CC4)c(OC)cc23)c(Cl)cc1Cl` [Bosutinib], the drug sensitivity score stood at 9.2 DSS under setting [1], 7.3 DSS under setting [2] and 8 DSS under setting [3].

Consider `Cc1cc2c(F)c(Oc3ncnn4cc(OC[C@@H](C)O)c(C)c34)ccc2[nH]1` [Brivanib], for which the drug sensitivity score by setting is: under setting [1], 0 DSS; under setting [2], 0 DSS; under setting [3], 0 DSS.

Consider `CCC/C=C/C=C/C(=O)O[C@H]1/C(=C/C(=O)OC)C[C@H]2C[C@H]([C@@H](C)O)OC(=O)C[C@H](O)C[C@@H]3C[C@H](OC(C)=O)C(C)(C)[C@](O)(C[C@@H]4C/C(=C/C(=O)OC)C[C@H](/C=C/C(C)(C)[C@]1(O)O2)O4)O3` [Bryostatin 1], for which the drug sensitivity score is, setting by setting: under setting [1], 1.7 DSS; under setting [2], 0.6 DSS; under setting [3], 0 DSS.

On to `Nc1cc(C(F)(F)F)c(-c2cc(N3CCOCC3)nc(N3CCOCC3)n2)cn1` [Buparlisib], for which the drug sensitivity score amounted to 8.9 DSS under setting [1], 7.7 DSS under setting [2] and 5.9 DSS under setting [3].

Turning to `CS(=O)(=O)OCCCCOS(C)(=O)=O` [Busulfan], the drug sensitivity score by setting is: under setting [1], 0 DSS; under setting [2], 1.4 DSS; under setting [3], 1.5 DSS.

In the case of `O=C(O)CCCCC(CCSCc1ccccc1)SCc1ccccc1` (centres undefined) [CPI-613], the drug sensitivity score is 0 DSS under setting [1] and 0 DSS under setting [3].

In the case of `C#Cc1cccc(Nc2ncnc3cc(OC)c(OCCCCCCC(=O)NO)cc23)c1` [CUDC-101], the drug sensitivity score was determined as 11.3 DSS under setting [1], 12.6 DSS under setting [2] and 10.7 DSS under setting [3].

Take `CN(C)c1cc2c(cc1Sc1nc3c(N)nccc3n1CCNCC(C)(C)C)OCO2` [CUDC-305]: the drug sensitivity score by setting is: under setting [1], 13.3 DSS; under setting [2], 13.1 DSS; under setting [3], 14.9 DSS.

With `COc1ccc(-c2nc(N3CCOCC3)c3sc(CN(C)c4ncc(C(=O)NO)cn4)cc3n2)cn1` [CUDC-907], the drug sensitivity score runs as follows: under setting [1], 40.7 DSS; under setting [2], 33.9 DSS; under setting [3], 34.2 DSS.

For the molecule `Cc1nc(N)sc1-c1ccnc(Nc2ccc(N3CCOCC3)cc2)n1` [CYC-116], the drug sensitivity score runs as follows: under setting [1], 9.3 DSS; under setting [3], 8.8 DSS.

Turning to `CO[C@H]1C(=O)[C@]2(C)[C@@H](OC)C[C@H]3OC[C@@]3(OC(C)=O)[C@H]2[C@H](OC(=O)c2ccccc2)[C@]2(O)C[C@H](OC(=O)[C@H](O)[C@@H](NC(=O)OC(C)(C)C)c3ccccc3)C(C)=C1C2(C)C` [Cabazitaxel], the drug sensitivity score is, setting by setting: under setting [1], 18.7 DSS; under setting [2], 14.6 DSS; under setting [3], 20.3 DSS.

Molecule `COc1cc2nccc(Oc3ccc(NC(=O)C4(C(=O)Nc5ccc(F)cc5)CC4)cc3)c2cc1OC` [Cabozantinib] yielded a drug sensitivity score under setting [1] of 0 DSS, a drug sensitivity score under setting [2] of 2.7 DSS and a drug sensitivity score under setting [3] of 0.6 DSS.

`CC[C@@]1(O)C(=O)OCc2c1cc1n(c2=O)Cc2cc3ccccc3nc2-1` [Camptothecin]: the drug sensitivity score came out at 18.4 DSS under setting [1], 10.3 DSS under setting [2] and 12.6 DSS under setting [3].

For `C=CC(=O)Nc1cc2c(Nc3ccc(F)c(Cl)c3)ncnc2cc1OCCCN1CCOCC1` [Canertinib], the drug sensitivity score runs as follows: under setting [1], 7 DSS; under setting [2], 6.2 DSS; under setting [3], 8.6 DSS.

For the molecule `CCCCCOC(=O)Nc1nc(=O)n([C@@H]2O[C@H](C)[C@@H](O)[C@H]2O)cc1F` [Capecitabine], the drug sensitivity score by setting is: under setting [1], 0 DSS; under setting [2], 0 DSS; under setting [3], 0 DSS.

Turning to `O=C(O)C1(C(=O)O)CCC1.[NH2-].[NH2-].[Pt+2]` [Carboplatin], the drug sensitivity score worked out at 1 DSS under setting [1] and 0.5 DSS under setting [3].

Consider `CC(C)C[C@H](NC(=O)[C@H](CCc1ccccc1)NC(=O)CN1CCOCC1)C(=O)N[C@@H](Cc1ccccc1)C(=O)N[C@@H](CC(C)C)C(=O)[C@@]1(C)CO1` [Carfilzomib], for which the drug sensitivity score amounted to 22.9 DSS under setting [1], 24.5 DSS under setting [2] and 24.6 DSS under setting [3].

On to `O=NN(CCCl)C(=O)NCCCl` [Carmustine], for which the drug sensitivity score by setting is: under setting [1], 0 DSS; under setting [2], 0 DSS; under setting [3], 0.4 DSS.

With `COc1cc2c(Oc3ccc4[nH]c(C)cc4c3F)ncnc2cc1OCCCN1CCCC1` [Cediranib], the drug sensitivity score runs as follows: under setting [1], 6.1 DSS; under setting [2], 5.1 DSS; under setting [3], 4.3 DSS.

`Cc1ccc(-c2cc(C(F)(F)F)nn2-c2ccc(S(N)(=O)=O)cc2)cc1` [Celecoxib]: the drug sensitivity score was 0 DSS under setting [1], 0 DSS under setting [2] and 0 DSS under setting [3].

On to `CCS(=O)(=O)N1CCN(c2ccc(Nc3ncc(C(N)=O)c(NC4CC4)n3)cc2)CC1` [Cerdulatinib], for which the drug sensitivity score under setting [1] was found to be 7.8 DSS, the drug sensitivity score under setting [2] turned out to be 6.6 DSS and the drug sensitivity score under setting [3] was found to be 9.3 DSS.

As for `Cc1cc(Nc2ncc(Cl)c(Nc3ccccc3S(=O)(=O)C(C)C)n2)c(OC(C)C)cc1C1CCNCC1` [Ceritinib], the drug sensitivity score worked out at 2.1 DSS under setting [1], 0.8 DSS under setting [2] and 0.2 DSS under setting [3].

Turning to `O=C(O)CCCc1ccc(N(CCCl)CCCl)cc1` [Chlorambucil], the drug sensitivity score turned out to be 0 DSS under setting [1], 0 DSS under setting [2] and 0 DSS under setting [3].

For `CCN(CC)CCCC(C)Nc1ccnc2cc(Cl)ccc12` (centres undefined) [Chloroquine], the drug sensitivity score runs as follows: under setting [1], 14.9 DSS; under setting [3], 11.6 DSS.

`CC(C)[C@H]1C(=O)N[C@@H](CCCNC(=N)N)C(=O)NCC(=O)N[C@@H](CC(=O)O)C(=O)N[C@H](Cc2ccccc2)C(=O)N1C` [Cilengitide]: the drug sensitivity score reads like this: under setting [1], 0 DSS; under setting [2], 0 DSS; under setting [3], 0 DSS.

In the case of `N.N.[Cl][Pt][Cl]` [Cisplatin], the drug sensitivity score came to 8.1 DSS under setting [1] and 9.2 DSS under setting [3].

For the molecule `Nc1nc(Cl)nc2c1ncn2[C@H]1C[C@H](O)[C@@H](CO)O1` [Cladribine], the drug sensitivity score under setting [1] was determined as 2.4 DSS, the drug sensitivity score under setting [2] came to 0 DSS and the drug sensitivity score under setting [3] is 0.5 DSS.

Take `Nc1nc(Cl)nc2c1ncn2[C@@H]1O[C@H](CO)[C@@H](O)[C@@H]1F` [Clofarabine]: the drug sensitivity score worked out at 8.4 DSS under setting [1], 0.7 DSS under setting [2] and 6.5 DSS under setting [3].

For `CCN(CC)CCOc1ccc(C(=C(Cl)c2ccccc2)c2ccccc2)cc1` [Clomifene], the drug sensitivity score reads like this: under setting [1], 7 DSS; under setting [2], 5.3 DSS; under setting [3], 6.1 DSS.

As for `O=C(c1ccc(F)c(F)c1Nc1ccc(I)cc1F)N1CC(O)([C@@H]2CCCCN2)C1` [Cobimetinib], the drug sensitivity score reads like this: under setting [1], 13.3 DSS; under setting [3], 7.7 DSS.

Take `COc1c(OCCCN2CCOCC2)ccc2c1N=C(NC(=O)c1cnc(N)nc1)N1CCN=C21` [Copanlisib]: the drug sensitivity score runs as follows: under setting [1], 4 DSS; under setting [2], 0.3 DSS; under setting [3], 0 DSS.

Take `CC1(COc2ccc3c(c2)ncn3-c2ccc3cccc(N4CCC(N)CC4)c3n2)COC1` [Crenolanib]: the drug sensitivity score turned out to be 11.9 DSS under setting [1], 11.7 DSS under setting [2] and 13 DSS under setting [3].

On to `C[C@@H](Oc1cc(-c2cnn(C3CCNCC3)c2)cnc1N)c1c(Cl)ccc(F)c1Cl` [Crizotinib], for which the drug sensitivity score by setting is: under setting [1], 0.6 DSS; under setting [2], 0.2 DSS; under setting [3], 2.9 DSS.

`O=P1(N(CCCl)CCCl)NCCCO1` (centres undefined) [Cyclophosphamide]: the drug sensitivity score is, setting by setting: under setting [1], 0 DSS; under setting [2], 0 DSS; under setting [3], 0 DSS.
